From patent US20070099822A1, “Regulation of tissue mineralization and phosphate metabolism by asarm peptides” (priority 2003, published 2007)

System: male ICR Swiss mice
Test: Example VI: subcutaneous PO4-ASARM-peptide or etidronate, calcein fluorescence and Sanderson osteoid staining
Assay type: in vivo
Settings: four layers visible in vehicle group
Protocol: Subcutaneous administration of PO4-ASARM-peptide, etidronate (EHDP), and calcein. Three separate groups of male ICR Swiss mice (4-5 weeks) were subcutaneously injected once a day (9:00AM), for 12 days except for days 6 and 7 with 50 μL solutions of either (1) Eitidronate (EHDP) (10 mg/kg/day); (2) PO4-ASARM-peptide (2 mg/kg/day); or (3) vehicle consisting of 5 mM HEPES pH 7.4/150 mM NaCL/0.1% BSA. The synthetic PO4-ASARM-peptide was dissolved in vehicle (1.0 mg/mL). Etidronate was first dissolved in 150 mM NaCl and then buffered to pH 7.5 with 1M NaOH to give a 5 mg/mL solution. The 10 mg/kg/day doses of etidronate have previously been reported to inhibit mineralization in rats and were used as positive controls (Trechsel, et al., Am J Physiol 232(3):E298-305, 1977; Bonjour, et al., Am J Physiol 229(2):402-8, 1975). All three groups were subcutaneously injected with calcein (20 mg/kg/day) on days 3, 5, […]. The degree of calcein fluorescence and/or fluorescence-quenching is an indicator of mineralization status (see next section). The calcein injections when given were administered 1 h after the daily injections of PO4-ASARM-peptide, EHDP or vehicle. Animals were then terminated humanely and calvariae plus femurs/tibia were fixed in 70% ethanol (non-decalcified). After fluorescence imaging (see FIG. 35) calvariae were processed in plastic and stained with Sanderson's stain (see below). Five animals per group were used for statistical analysis of fluorescence quenching and histological Sanderson staining.
Calcein fluorescence in mice calvariae, hind-limbs & fluor-imager analysis of mineralization. A Bio-Rad (Hercules, Calif.) FluorImager^max fluorescent imager was used to simultaneously image all the samples from each of the 3 groups (15 animals; five animals per group). This consisted of 10 tibia/femurs and 5 calvariae per group. Samples were placed on top of the FluorImager plate contained within a light-tight box. Ultra-violet light was used to generate calcein-mediated epi-fluorescence and the fluorescent-image was captured on a −40° C., peltier-cooled, 1,340×1040 pixel CCD resolution, CCD digital-camera. Quantitation of fluorescence was carried out using Quantity-1 (Bio-Rad, Hercules, Calif.) fluorescence-software. Pixel saturation was prevented by internal software calibration and exposure adjustment. All fluorescence readings were thus accurately quantitative and non-saturating. Photo-micrographic UV fluorescent analysis of calvarial cross sections embedded in plastic and mounted as slides (<100 micrometer sections) was also undertaken and a description of the fixation and processing is given in the next section.
Sanderson-staining and fluorescence detection of calvarial osteoid & mineralized bone. Staining of non-decalcified calvarial sections was performed using the method described by Sanderson and Bachus (Staining technique to differentiate mineralized and demineralized bone in ground sections, J Histotechnol 20(2): 119-122, 1997). This technique provides differential staining between unmineralized osteoid and mineralized bone. Prior to staining, calvariae were dissected and attached tissue removed. Calvariae were then placed in 70% ethanol for further fixation as described by Sanderson and Bachus (supra). After fixing and processing undecalcified calvariae were embedded in plastic (LR-white acrylic resin (London Resin Co., Reading, England)) as previously described (Garrett, et al., Selective inhibitors of the osteoblast proteasome stimulate bone formation in vivo and in vitro, J Clin Invest 111(11):1771-1782, 2003). Plastic embedded sections were ground to <100 micrometers using a specialized grinding-pestle as described by Donath and Breuner (A method for the study of undecalcified bones and teeth with attached soft tissues. The Sage-Schliff (sawing and grinding) technique, J Oral Pathol 11(4):318-26, 1982). […]

In the case of “H-CFSSRRRDDSSESSDSGSSSESDGD-OH [ASARM-peptide]”, the “lamellar calcein fluorescent layers in calvarial cross-sections” value is reported as “complete absence”.
